Measured values published in patent US20230399378A1, “PEPTIDE-BASED DELIVERY OF AGENTS” (THE FLOREY INSTITUTE OF NEUROSCIENCE AND MENTAL HEALTH, priority 2020, published 2023).

Experiments:
[1] = system: SMN2; test: SMN2 splice-switching for exon 7 inclusion by RT-qPCR in SMA Type I patient-derived fibroblasts (Example 2); assay type: cell-based, human; conditions: for level of exon-7 inclusion activity (full length SMN2/HPRT1, normalised to untreated control set to 1): treated 4 hrs, then 20 hrs growth medium, mean±SEM
Description: FIG. 3. (A) SMN2 pre-mRNA exon-7 skipping and production of 80-90% SMN2Δ7 mRNA transcripts. Peptide-PMO binding to Intron-splicing silencer (ISS-N1) and restoration of SMN2 splicing and production of full-length SMN2 mRNA transcripts. The positions of forward and reverse primers highlighted on full-length mRNA. (B)-(C) Effect of administration of peptides linked to PMO for SMN2 exon 7 inclusion, measured as change in the level of full length SMN2/HPRT1 in SMA patient-derived fibroblasts, each at two concentrations, 0.5 μM and 1 μM (or 1 μM and 5 μM in the case of PMO alone). UT, untreated. (B) For PMO constructs, from left to right: PMO; ApoE(141-150)-PMO; ApoE(133-150)-PMO. (C) For PMO constructs, from left to right: PMO; HA2-PMO; GALA-PMO; NLS-PMO; ApoE(141-150)-PMO; HA2-ApoE(141-150)-PMO; GALA-ApoE(141-150)-PMO; NLS-ApoE(141-150)-PMO; H4-ApoE(141-150)-PMO; A4-ApoE(141-150)-PMO. *P<0.05,**P<0.001, ***P<0.0001 cf. Untreated (control) and PMO (1 and 5 μM); #P<0.001 cf. GALA-/NLS-/H4-ApoE(141-150)-PMO (1 μM), ^<0.001 cf. ApoE(133-150)-PMO (0.5 and 1 μM), ^OP<0.001 cf. ApoE(141-150)-PMO (1 μM), ^&P<0.05 cf.
The inventors then evaluated cellular uptake and activity of these peptide-PMO conjugates in SMA Type I patient-derived fibroblasts with two copies of SMN2. Efficiency of uptake was assessed by RT-qPCR using SMN2 splice-switching for exon 7 inclusion (see FIG. 3A).
SMA Type I patient-derived fibroblasts (SMN2^+/+, GM03813, Coriell Cell Repositories) were maintained in Dulbecco's Modified Eagle's Medium (DMEM), supplemented with 10% foetal bovine serum (FBS), 1% Penicillin/Streptomycin and 1% L-glutamine (L-glu) at 37° C. Cells were plated in 6-well plates at a density of 3×10^5/well in 6 well plates one day prior to treatment with PMO and peptide-PMO conjugates. Cells used were from passage 8-22. PMO and the peptide-PMO conjugates were dissolved in nuclease-free water and diluted to appropriate concentrations in Opti-MEM reduced serum medium. Cells were treated for 4 hrs at 37° C. The transfection medium was then removed and replaced with growth medium in which the cells were incubated for 20 hrs.
Cells were washed with PBS and total cellular RNA was extracted using Trizol (TRI Reagent®, Sigma) according to the manufacturer's instructions (Life Technologies). 400 ng purified RNA was reverse transcribed into cDNA using BioRad iScript Reverse Transcription Supermix kit according to the manufacturer's instructions. The reverse transcription was performed using the Veriti Thermal Cycler (ThermoFisher Scientific) with the thermal cycling conditions: 25° C. for 5 min, 46° C. for 20 min, 95° C. for 1 min followed by a 4° C. holding period.
Quantitative PCR (20 ng cDNA/well) was carried out in a 96-well plate in triplicate using SsoAdvanced Universal SYBR Green Supermix on a Biorad CFX96 Touch™ Real-Time PCR detection system. The amplification was carried out using full-length SMN2-specific primers: Ex-6 Forward 5′-[…]-3′ (SEQ ID NO:10) and Ex7-8 reverse 5′[…]-3′ (SEQ ID NO:11). Human HPRT1 was used as the internal reference gene with forward primer sequence 5′-[…]-3′ (SEQ ID NO:12) and reverse primer sequence 5′-[…]-3′ (SEQ ID NO:13). The ΔΔCt method was used to correct the Ct values against the HPRT1 Ct values. The values obtained were normalised to the untreated control values which were set to 1. Statistical analysis was carried out using one-way ANOVA with post-hoc Bonferroni for multiple groups comparison (GraphPad Prism V.8, 2018). All data are expressed as mean±SEM from at least three independent experiments with p<0.05 considered significant.

[2] = system: SMA patient-derived fibroblasts; test: Confocal fluorescence uptake of Cy5-labelled peptide-PMO conjugates in SMA fibroblasts; assay type: cell-based, human; conditions: 1 μM; for intracellular fluorescence pattern: 1 hr at 37° C.; for cellular uptake on addition of endosomal escape domain HA2: 1 hr, versus counterparts without HA2
Experimental: FIG. 4. Representative confocal fluorescence microscopy images of SMA patient-derived fibroblasts treated with 1 μM of Cy5-labelled: (A) ApoE(141-150)-PMO; (B) HA2-ApoE(141-150)-PMO; (C) ApoE(133-150)-PMO; and (D) HA2-ApoE(133-150)-PMO, for 1 hr at 37° C.
SMA fibroblasts (6.0×10^4 cells/well) were plated onto a p-Slide 4 Well Ph+ Glass Bottom chamber slides precoated with poly-L-ornithine (Ibidi GmbH). After 24 hr, cells were incubated for 1 hr with Cy5-labelled peptide-PMO conjugates (1 μM or 5 μM) diluted in serum free Opti-MEM. At 10 min to end of 1 hr incubation, Hoechst (1:1000 dilution) was added to each well.

[3] = system: fibroblasts; test: Viability of fibroblasts by MTS assay (cytotoxicity); assay type: cell-based, human
Experimental: FIG. 5. Effect of the endosomal escape domain HA2 and lipidation of peptide-PMO conjugates on the viability of fibroblasts determined using MTS assay. UT, untreated control.
The peptide-PMO conjugates were tested up to 10 μM which is 10-fold greater than the concentration needed to achieve a high level of activity.

[4] = assay type: in vivo, mice; conditions: 8 mg/kg; dose escalation at 5, 8 and 10 mg/kg; data not shown
[5] = system: SMN2; test: Full-length SMN2 RNA in tissues of transgenic SOD1+/- SMN2+/- mice by RT-qPCR; assay type: in vivo; conditions: 8 mg/kg/week for 5 weeks, tail vein injection, 7 days after final administration, mean±SEM, versus saline-treated control
Experimental: FIG. 6. SMN upregulation in SOD1^G93A mice. A, administration regime. B, Full length (FL) SMN2 levels in brain, spinal cord (S. cord), kidney and quadriceps (Quad) as determined by RT-qPCR in untreated mice (left hand columns) and mice treated with SEQ ID NO:6-PMO conjugate (right hand columns) after administration at a dose of 8 mg/kg weekly for five weeks. *, p<0.05; **, p<0.001; ***, p<0.0001 cf. saline-treated group.
A peptide consisting of the amino acid sequence of SEQ ID NO:6 was conjugated to the PMO antisense oligonucleotide of SEQ ID NO:9 via a non-reducible thioether (thiol-maleimide) bond as described in Example 1. […] Transgenic SOD1^+/− SMN2^+/− mice (n=5) at P60 were treated with Ac-HA2-ApoE(133-150)-PMO conjugate at 8 mg/kg/week for 5 weeks via tail vein injection. Age-matched control mice (n=6) were given saline. Tissues (brain, spinal cord, kidney and quadriceps) were harvested 7 days after final administration. The level of full-length SMN2 RNA was measured using RT-qPCR as above. The level of full-length SMN2 was normalised to mouse HPRT1 with forward primer sequence 5′-[…]-3′ (SEQ ID NO:14) and reverse primer sequence 5′[…]-3′ (SEQ ID NO:15). Data were expressed as mean±SEM. The statistical significances between saline-treated and Ac-HA2-ApoE(133-150)-PMO-treated groups were determined using the Student's t test. […]

[6] = intrathecal injection; cited from earlier work

Substance | exon-7 inclusion activity, change in words ([1]; 0.5 μM and 1 μM, versus comparator) | intracellular fluorescence pattern [2] | cellular uptake on addition of endosomal escape domain HA2 [2] | effect on cell viability ([3]; at 10 μM) | effect on cell viability ([3]; up to 5 μM) | level of exon-7 inclusion activity (full length SMN2/HPRT1, normalised to untreated control set to 1) ([1]; 0.5 μM) | level of exon-7 inclusion activity (full length SMN2/HPRT1, normalised to untreated control set to 1) ([1]; 1 μM) | tolerability [4] | level of full length SMN2 RNA (normalised to mouse HPRT1) ([5]; brain) | level of full length SMN2 RNA (normalised to mouse HPRT1) ([5]; spinal cord) | side effects such as postprocedural headache and backpain, share of adult patients [6] [%]
Ac-GLFHAIAHFIHGGWH-X-LRKLRKRLLR-X-C-PMO [HA2-ApoE(141-150)-PMO] | significant increase in the activity | higher fluorescence intensity with a more diffused pattern | significantly enhanced cellular uptake | decrease in cell viability | None of the P-PMO conjugates had a significant effect on cell viability | – | – | – | – | – | –
Ac-GLFHAIAHFIHGGWH-X-LRVRLASHLRKLRKRLLR-X-C-PMO [HA2-ApoE(133-150)-PMO] | – | higher fluorescence intensity with a more diffused pattern | significantly enhanced cellular uptake | decrease in cell viability | None of the P-PMO conjugates had a significant effect on cell viability | 2.02±0.12 | 2.8±0.13 | well-tolerated without any signs of adverse effects | 1.19±0.06 | 1.56±0.1 | –
TCACTTTCATAATGCTGG (chemistry not given here) [Nusinersen, FDA-approved antisense oligonucleotide for the treatment of spinal muscular atrophy] | – | – | – | – | – | – | – | – | – | – | 32
